“And” between values parts separate entries of the source, which are not always exact repeats. Identical values can stand only once.
Experiments:
Assay type in all cases: in vivo
[1] = tested on: Schistosoma mansoni; assay: Primary curative test against Schistosoma mansoni in hamster
Protocol: The primary curative test evaluates the therapeutic activity of the drug against S. mansoni in hamster. Interpretation of the test is based upon observation of a shift of worms from the portal and mesenteric veins to the liver under the influence of the test drug. Hamsters weighing 150 to 250 grams were exposed to 150-250 S. mansoni cercariae by the ring method. 30 to 35 days after infection, the test drug (compound (I)) was administered as a 200 mg/kg daily dose for four consecutive days. The drug was administered by oral gavage suspended in gum syrup. Hamsters were sacrificed three days after the last drug treatment. The liver was removed, squashed between two slides, and the number of live and dead worms in the liver were recorded. From experience, the total worm burden in the portal circulation of S. mansoni infected hamsters ranges from 20 to 50 worms, i.e., […] of the total number of cercariae injected. Over 80% of these worms reside in the extra-hepatic portal and mesenteric veins. Thus, when the liver is removed in control animals about 10 worms could be counted in the liver.

[2] = tested on: Schistosoma mansoni; assay: Primary prophylactic test (mortality test) against Schistosoma mansoni in mice
Protocol: The primary screening method used to evaluate prophylactic activity against Schistosoma mansoni is a mortality test. Mice are exposed to a massive number of cercariae by tail immersion. In untreated control mice this exposure produces a reproducible mortality pattern with 99+% of the mice dying between 20 and 30 days (mean survival time 24 days). The test compound is administered in a single dose two days after cercarial exposure. A compound is considered active if mice survive to 49 days, at which time they are sacrificed and examined for worms.
The test is of the "prophylactic"-type in the sense that the drug action is on the immature migrating schistosomes and prevents the development of adult worms in the portal circulation.
Mice weighing 18 to 23 grams were exposed to 3500-4500 infective S. mansoni cercariae by tail immersion for 30 minutes, and subsequently housed in groups of five per cage (5 test mice and 5 control mice). Two days after infection, the test compound of the formula (I) was administered subcutaneously as a single 1,280 mg/kg dose suspended in peanut oil to one group of five mice.
Mouse mortality was recorded daily for 49 days after infection. On the 49th day, survivors were sacrificed and the total worm burden was determined by perfusion of the liver and portal circulation (perf-o-suction technique).
Control mice exposed to at least 3500 cercariae and not treated with the test compound (I) experience 99+% mortality, with nearly all deaths occurring between about day 20 and day 30. In treated mice, deaths occurring within one week after drug administration are assumed to be induced by the toxic action of the drug itself, since, control mice rarely die during this period. The survival of drug treated mice to 49 days is interpreted as evidence of drug action which kills or otherwise prevents the development of the migrating immature schistosomes. The- survival of only one mouse has, in our experience, been difficult to reproduce, and, in general, a compound is not considered active unless two or more mice survive to 49 days.

[3] = Acute oral toxicity study in mice
Protocol: The test chemical was administered as a single 4,000 mg/kg oral dose to five male and five female Swiss mice.

[4] = tested on: S. japonicum; assay: Primary curative test against S. japonicum in hamsters; settings: 1 g/kg single oral gavage
Text: The primary curative test evaluates the therapeutic activity of the drug against S. japonicum in hamsters. Interpretation of the test is based upon observation of a shift of worms from the portal and mesenteric veins to the liver under the influence of the test drug. In addition the mortality of the worms found in the liver, portal and mesenteric veins is also an important criteria of effectiveness in establishing the schistosomicidal effectiveness of the drug. Hamsters weighing 150 to 250 grams were exposed to 100 S. japonicum cercariae by the ring method. 35 to 45 days after infection, the test compound (I) was administered as a single […] by oral gavage, the product being suspended in gum syrup. Out of 10 infected animals, 5 were so treated, with 5 being used as control animals. Hamsters were sacrificed three days after treatment; the liver was removed as well as the portal and mesenteric veins, squashed between two slides and the number of live or dead worms in the liver, the portal and mesenteric veins was recorded.

[5] = individual hamsters 1-5, 200 mg/kg daily for four consecutive days, oral gavage, sacrificed three days after last treatment, 200 mg/kg
[6] = individual surviving mice (Mouse 1-3) sacrificed day 49, 1,280 mg/kg s.c.
[7] = mean of three surviving mice, day 49, 1,280 mg/kg s.c.
[8] = individual treated hamsters 1-5

With `COc1ccc(NC(=O)C=Cc2ccc([N+](=O)[O-])o2)c(C)c1` [compound (I), N-(4-methoxy-2-methylphenyl)-3-(5-nitro-2-furanyl) propenamide] the “shift of worms from the portal and mesenteric veins to the liver” value ([1]; 200 mg/kg daily x 4 days oral, parasites in the liver were dead) was “marked shift of the worms from the portal and mesenteric veins to the liver”, the effective dose ([1]; for four consecutive days, oral gavage, hamster) was 200 mg/kg per day and the “No. of worms found in the liver, Treated Animals, F” value [1, 5] was 17 and 6 and 18 and 60 and 54. The “No. of worms found in the liver, Treated Animals, M” value [1, 5] was 17 and 10 (2×) and 50 and 46, the “Mean No. of worms found in the liver, Treated Animals, F” value ([1]; mean of five treated hamsters, 200 mg/kg daily x 4 days oral, controls 12.0) was 31.0 and the “Mean No. of worms found in the liver, Treated Animals, M” value ([1]; mean of five treated hamsters, 200 mg/kg daily x 4 days oral, controls 15.3) was 26.6. The “mice survived until day 49” value ([2]; group of five mice, single 1,280 mg/kg subcutaneous dose in peanut oil two days after infection) was “Three”, the “day of death of the two test mice that died” value ([2]; group of five mice, single 1,280 mg/kg subcutaneous dose, control mice died at days 19, 22, 25, 28 and 32) was 41 days and the “worm burden, Female” value [2, 6] was 5 and 7 and 6. The “worm burden, Total” value [2, 6] was 15 and 19 and 16, the “worm burden, Male” value ([2]; individual surviving mice (Mouse 1-3) sacrificed day 49, 1,280 mg/kg s.c., perfusion of liver and portal circulation) was 10 (2×) and 12 and the “worm burden, Female, mean” value [2, 7] was 6.0. For the same compound, the “worm burden, Male, mean” value [2, 7] was 10.6, the “worm burden, Total, mean” value [2, 7] was 16.6 and the “activity against the migrating stage of Schistosoma mansoni in mice” value ([2]; single subcutaneous administration of 1,280 mg/kg, active = two or more mice survive to 49 days) was “active”. For the same compound, the LD50 at 336 h ([3]; mouse, in vivo, po, administered orally in mice) was greater than 4000 mg/kg, the “clinical observation, weights and macroscopic examination of organs” value ([3]; single 4,000 mg/kg oral dose, five male and five female Swiss mice, 14 days) was “no adverse pattern” and the “shift of worms from the portal and mesenteric veins to the liver” value [4] was “marked shift of the worms from the portal and mesenteric veins to the liver”. The “worms killed on the average in the liver, the portal and mesenteric veins” value ([4]; average of five treated hamsters) was “about 86%”, the “No. of worms found, Liver, Female” value [4, 8] was 7 and 6 (3×) and 4 and the “No. of worms found, Mesenteric, Female” value [4, 8] was 5 and 4 (3×) and 2. The “No. of worms found, Mesenteric, Male” value [4, 8] was 7 (2×) and 6 and 4 and 8, the “No. of worms found, Portal, Female” value [4, 8] was 0 and the “No. of worms found, Portal, Male” value [4, 8] was 0. The “No. of worms found, Liver, Male” value ([4]; individual treated hamsters 1-5, sacrificed three days after treatment) was 8 (2×) and 14 (2×) and 9 and the “% dead” value ([4]; worms, individual treated hamsters 1-5, controls 0) was 100% (3×) and 70% and 60%.
